Data reported in patent US12201626B2, “Bifunctional compositions for the treatment of cancer” (ARMACEUTICA, INC., priority 2018, dated 2025).
Entries after “also recorded” stand apart in the source; their conditions may differ.

Tests used:
[1] = system: malignancy that was metastatic or unresectable; assay: Open-label dose-escalating study of oral PND in terminally-ill human cancer patients
Procedure: An open-label, dose-escalating study was conducted to assess the longevity and safety of oral pyronaridine tetraphosphate (PND) in five terminally-ill human patients with selected cancers. […] Exclusion criteria included active clinically significant infection, uncontrolled intercurrent illness, neutropenia, and pregnancy.
The PND was obtained from Mangalam Drugs and Organics, Ltd, and the powered PND was encapsulated in size “00” gelatin capsules for oral administration.
Patient were instructed to escalate his or her dose if there was no unacceptable toxicity. […] Study Arm 2 started with a daily dose of 200 mg for 2 weeks, then 400 mg for 2 weeks, then 600 mg onwards. Due to ethical concerns of treating terminally-ill patients, there was no placebo group.
The primary outcomes assessed was the difference between the patient's expected survival length estimated at the time of study entry (estimated at 2-4 weeks for each patient) and his or her actual survival length. The secondary outcomes were malignancy-associated symptom relief, anti-tumor activity, safety, and tolerability of PND.

[2] = system: HL-60 cells; assay: Phosphatidylserine externalization, annexin V-FITC/PI flow cytometry; format: cell-based, human; conditions: 24 h
Procedure: (§1) To determine whether cell death induced by PND was occurring through apoptosis or necrosis, MDA-MB-231 and HL-60 cells were stained with annexin V-FITC and PI and monitored via flow cytometry. Cells were seeded in 24-well plates at a density of 100,000 for adherent MDA-MB-231 and 200,000 HL-60 cells in 1 ml of culture media. After overnight incubation, cells were treated with PND, and incubated for an additional 24 h. For MDA-MB-231 cells, unattached cells were harvested in an ice-cold tube, while adhered cells were detached by using HyQtase (Thermo Fisher) and incubated for around 5 min at 37° C. Both unattached and detached cells harvested from each individual well were washed with ice-cold PBS and centrifuged at 260×g for 5 min. HL-60 were centrifuged directly after the incubation period as they grow in suspension. Cells were then stained with a mixture of annexin V-FITC and PI in 100 μl of binding buffer and incubated on ice in the dark for 15 minutes, following the manufacturer's instructions (Beckman Coulter). Lastly, the cells were resuspended by the addition of 400 μl of ice-cold binding buffer and analysed by flow cytometry (Cytomics FC500; Beckman Coulter). For this series of experiments, cells treated with PBS, as solvent control; treated with H2O2, as a positive control of cytotoxicity; and untreated were included and processed in parallel. For each sample, 10,000 events/cells were collected and analysed using CXP software (Beckman Coulter). Both the experimental samples and their controls were processed similarly and assessed in triplicate. The sum of both early and late stages of apoptosis was calculated to obtain the total percentage of apoptotic cells.

[3] = system: MDA-MB-231 cells; assay: as above; format: cell-based, human; conditions: 24 h
Procedure: as §1

[4] = biological target: T1, topoisomerase II (Homo sapiens, UniProt P11388); assay: TopoGen Topoisomerase II Assay Kit (kDNA decatenation); format: biochemical; conditions: kDNA plus topoisomerase II; 5, 50, 500 μM PND
T1 construct: purchased TopoGen
T1 sequence (P11388 whole entry): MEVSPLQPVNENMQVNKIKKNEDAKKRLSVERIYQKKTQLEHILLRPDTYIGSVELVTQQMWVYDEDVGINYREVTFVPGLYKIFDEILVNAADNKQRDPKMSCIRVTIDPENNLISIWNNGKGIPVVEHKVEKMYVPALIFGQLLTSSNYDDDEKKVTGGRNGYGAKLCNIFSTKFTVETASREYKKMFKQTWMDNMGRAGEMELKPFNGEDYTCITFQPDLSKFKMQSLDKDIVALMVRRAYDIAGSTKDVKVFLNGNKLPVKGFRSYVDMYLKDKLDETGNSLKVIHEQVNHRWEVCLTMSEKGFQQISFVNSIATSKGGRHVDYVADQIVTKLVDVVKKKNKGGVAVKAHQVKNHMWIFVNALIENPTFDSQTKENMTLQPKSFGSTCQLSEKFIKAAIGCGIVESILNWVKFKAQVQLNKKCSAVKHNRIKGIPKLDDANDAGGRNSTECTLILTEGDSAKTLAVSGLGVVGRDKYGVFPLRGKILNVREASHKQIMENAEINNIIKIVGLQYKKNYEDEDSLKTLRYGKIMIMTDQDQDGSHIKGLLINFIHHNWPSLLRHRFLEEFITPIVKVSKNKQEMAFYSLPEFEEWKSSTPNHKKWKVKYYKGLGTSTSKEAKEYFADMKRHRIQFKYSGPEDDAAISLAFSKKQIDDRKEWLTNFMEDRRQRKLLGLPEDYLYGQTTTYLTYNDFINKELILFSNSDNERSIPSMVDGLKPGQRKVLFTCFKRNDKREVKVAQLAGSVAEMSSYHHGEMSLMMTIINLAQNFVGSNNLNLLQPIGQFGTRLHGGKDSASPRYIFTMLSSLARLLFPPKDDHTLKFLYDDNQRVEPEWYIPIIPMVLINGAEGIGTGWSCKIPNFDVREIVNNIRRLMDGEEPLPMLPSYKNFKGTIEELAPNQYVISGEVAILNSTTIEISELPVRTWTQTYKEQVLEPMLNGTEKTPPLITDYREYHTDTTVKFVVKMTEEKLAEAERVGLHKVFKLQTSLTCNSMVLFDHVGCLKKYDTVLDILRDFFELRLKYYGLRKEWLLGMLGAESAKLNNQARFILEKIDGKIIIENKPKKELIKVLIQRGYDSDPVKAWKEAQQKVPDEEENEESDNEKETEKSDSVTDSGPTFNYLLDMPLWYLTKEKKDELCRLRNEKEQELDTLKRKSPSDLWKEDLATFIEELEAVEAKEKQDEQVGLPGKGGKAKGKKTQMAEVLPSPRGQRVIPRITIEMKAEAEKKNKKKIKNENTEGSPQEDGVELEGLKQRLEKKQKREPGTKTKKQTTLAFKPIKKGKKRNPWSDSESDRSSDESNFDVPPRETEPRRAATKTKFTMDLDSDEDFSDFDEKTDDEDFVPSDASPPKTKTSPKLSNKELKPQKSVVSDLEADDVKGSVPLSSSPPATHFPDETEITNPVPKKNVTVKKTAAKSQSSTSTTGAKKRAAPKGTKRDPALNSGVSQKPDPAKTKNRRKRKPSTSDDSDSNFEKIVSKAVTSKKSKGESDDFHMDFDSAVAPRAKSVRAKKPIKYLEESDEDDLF
Excerpt: FIG. 3. Transcriptome analyses of possible pathways activated by pyronaridine (PND) and target validation. […] Pearson correlation analysis of the transcriptional signature of PND compared to the signatures deposited in LINCS project. Compounds marked correlate with the effects of PND, wherein darker the fill, the better the correlation. […] Lane 1, catenated kinetoplast DNA (kDNA); Lane 2, decatenated kDNA; Lane 3, linear kDNA; Lane 4, kDNA plus topoisomerase II; Lane 5, kDNA plus topoisomerase plus 5 μM of PND; Lane 6, kDNA plus topoisomerase plus 50 μM of PND; Lane 7, kDNA plus topoisomerase plus 500 μM of PND; Lane 8, kDNA plus topoisomerase II plus 1 mM etoposoide (Topo II inhibitor); Lane 9, kDNA plus topoisomerase ii plus PBS; 10, kDNA plus topoisomerase II plus DMSO.
In order to explore the possible Mechanism of Action (MoA) of PND, the transcriptome results for each cell line obtained were compared with the gene-expression data from the LINCS project (http://www.lincsproject.org), that contains the gene-expression profiles from various human cells treated with FDA-approved and withdrawn compounds as well as different well-characterized chemical reagents. It was reasoned that the expression profile of each lead compound should also induce a cellular gene expression response consistent with a known MoA of drugs deposited in LINCS. […]

[5] = system: Calf Thymus DNA; assay: Circular dichroism spectroscopy; format: binding; conditions: PND/DNA molar ratios 0.03-0.3; 30 min and 20 h
Procedure: Circular dichroism (CD) spectra measurements were taken in a JASCO-1100 spectropolarimeter equipped with a Xenon lamp (JASCO, Easton, MD). CT DNA and buffers were purchased from Sigma Aldrich. A CT DNA stock solution was prepared in Tris/HCl buffer (5 mM Tris/HCl, 50 mM NaCl, pH=7.39) and its concentration (4.325 mM) was spectrophotometrically determined using molar extinction coefficient 6600 M−1 cm−1 at 260 nm. A 150 μM dilution in Tris/HCl buffer was prepared and used for the experiments. A 2.0 mM stock solution of PND was freshly prepared in MQ water prior to use. The appropriate volume of this solution was added to 3 ml working solutions of 150 μM CT DNA to achieve molar ratios of 0.03, 0.06, 0.2 and 0.3 PND/DNA. Samples were prepared in triplicate and incubated for 30 minutes and 20 hours. All CD spectra of DNA and DNA/PND were recorded at 25° C. over the range 205-380 nm and finally corrected with a blank and noise reduction. The final data is the average of three experiments and it is expressed in millidegrees (mdegs).

Compound: COC1=CC=C2Nc3cc(Cl)ccc3C(N=C3C=C(CN4CCCC4)C(=O)C(CN4CCCC4)=C3)=C2N1 [PND, 4-[(7-chloro-2-methoxy-1,5-dihydrobenzo[b][1,5]naphthyridin-10-yl)imino]-2,6-bis(pyrrolidin-1-ylmethyl)cyclohexa-2,5-dien-1-one]
- most recent CBC and CMP results ([1]; Case 1): within normal reference ranges
- study-drug related adverse events ([1]; Case 1, hilar cholangiocarcinoma): no reports of any study-drug related adverse events
- survival status ([1]; Case 1, June 2019, start 20 Dec. 2018, expected survival 2-4 weeks): still alive
- study-drug related adverse events ([1]; Case 2, lung cancer stage IV): no reports of study-drug related adverse events
- survival status ([1]; Case 2, start 22 Jan. 2019): passed away on 22 Feb. 2019
- study-drug related adverse events ([1]; Case 3, ovarian cancer stage IV): no reports of study-drug related adverse events
- survival status ([1]; Case 3, start 15 Jan. 2019): passed away on 29 Jan. 2019
- survival status ([1]; Case 4, breast cancer stage IV, start 20 Jan. 2019): passed away on 15 Feb. 2019
- most recent CBC and CMP results ([1]; Case 5): within normal reference ranges
- study-drug related adverse events ([1]; Case 5, small cell lung cancer stage IV, cleared within a week): irritation on the skin during the first week of treatment
- survival status ([1]; Case 5, June 2019, start 29 Jan. 2019): still alive
- maximum tolerated dose ([1]; any patient, up to 500 or 600 mg daily): not reached
- tolerability ([1]; five patients, 200-600 mg daily oral): well tolerated
- apoptotic cells (PS externalization) ([2]; 34 μM): 14.8%
- apoptotic cells (PS externalization) ([2]; 68 μM): 30.2%
- annexin positive cells (PS externalization) ([3]; 11 μM): 67.2%
- annexin positive cells (PS externalization) ([3]; 22 μM): 71.1%
- inhibition of topoisomerase II activity [4]: activity of PND as a Topoisomerase inhibitor was confirmed; also recorded: inhibition of the topoisomerase II activity in a dose-dependent manner
- change of CD spectra of CT DNA [5]: increase the intensity of both the negative and the positive bands
